As usually defined, the IC50 is the concentration that gives 50% inhibition.

The structures appear in SMILES notation. A value given as a limit tells only on which side of the number the result lay.

This note sets out measurements from US9624241B2 (Incyte Corporation, priority 2013, dated 2017).

Holding throughout (assay type): binding
The target in assay [1] is T1, BRD4-BD2 (Homo sapiens (Human), UniProt O60885). As to the kind of experiment: BRD4 AlphaScreen Assay (Example A1), BRD4-BD2. The settings on record: Assay A1, 20 nM BRD4-BD2, 50 nM H4Ac4 peptide; read-out: BRD4 BD-2 enzyme IC50. As to the method:
(§1) BRD4-BD1 and BRD4-BD2 assays were conducted in white 384-well polystyrene plate in a final volume of 20 μL for BD1 and 40 μL for BD2. Inhibitors were first serially diluted in DMSO and added to the plate wells before the addition of other reaction components. […] After plate sealing, the plate was incubated in the dark at room temperature for 75 min. before reading on a PHERAstar FS plate reader (BMG Labtech). IC50 determination was performed by fitting the curve of percent control activity versus the log of the inhibitor concentration using the GraphPad Prism 5.0 software.

Assay [2] concerns the target T2, BRD4-BD1 (Homo sapiens (Human), UniProt O60885). As to the kind of experiment: BRD4 AlphaScreen Assay (Example A1), BRD4-BD1. The conditions noted are these: Assay A1, 3.8 nM BRD4-BD1, 50 nM H4Ac4 peptide; read-out: BRD4 BD-1 enzyme IC50. As to the method: as §1
A general note: Alpha assays give light when donor and acceptor beads are brought close together.

The target of assay [3] is T1, BRD4-BD2. Kind of assay: BRD4 AlphaScreen Assay (Example A2), BRD4-BD2. The conditions noted are these: Assay A2, AlphaScreen, BRD4-BD2; read-out: BRD4 BD-2 enzyme IC50. In outline: (§2)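 Displacement of 50 nM biotinylated tetra-acetylated histone H4 peptide from BRD4 BD1 or BD2 (<1 nM) in Tris-HCl pH 7.5 buffer with DTT. Inhibitors serially diluted in DMSO, added first, then incubated 75 min in the dark at room temperature before AlphaScreen read. IC50 fitted from percent control activity versus log concentration.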

The target in assay [4] is T2, BRD4-BD1. As to the kind of experiment: BRD4 AlphaScreen Assay (Example A2), BRD4-BD1. The conditions noted are these: Assay A2, AlphaScreen, BRD4-BD1; read-out: BRD4 BD-1 enzyme IC50. In outline:
as §2

For `Cc1noc(C)c1-c1ccc2[nH]c(=O)n3c2c1OCC3c1ccccn1` (single isomer, unassigned) [Example 14, 7-(3,5-Dimethylisoxazol-4-yl)-4-pyridin-2-yl-4,5-dihydroimidazo[1,5,4-de][1,4]benzoxazin-2(1H)-one], the IC50 in assay [1] and in assay [2] was 1000 to 10000 nM in each case.
For the compound `Cc1noc(C)c1-c1ccc2[nH]c(=O)n3c2c1OCC3C1CCCO1` (single isomer, unassigned) [Example 18A, 7-(3,5-Dimethylisoxazol-4-yl)-4-(tetrahydrofuran-2-yl)-4,5-dihydroimidazo[1,5,4-de][1,4]benzoxazin-2(1H)-one], the values for the half-inhibitory concentration (IC50) in assay [1] and in assay [2] were under 100 nM and 100 to 1000 nM, respectively.
`Cc1noc(C)c1-c1ccc2[nH]c(=O)n3c2c1OCC3C1CCCO1` (single isomer, unassigned) [Example 18B, 7-(3,5-Dimethylisoxazol-4-yl)-4-(tetrahydrofuran-2-yl)-4,5-dihydroimidazo[1,5,4-de][1,4]benzoxazin-2(1H)-one]: the half-maximal inhibitory concentration (IC50) is under 100 nM in assay [1] and 100 to 1000 nM in assay [2].
On the same counts, the results for `Cc1noc(C)c1-c1ccc2nc(NC(C)CO)n3c2c1OCC3c1ccccc1` (single isomer, unassigned) [Example 30, 2-{[7-(3,5-Dimethylisoxazol-4-yl)-4-phenyl-4,5-dihydroimidazo[1,5,4-de][1,4]benzoxazin-2-yl]amino}propan-1-ol] are under 100 nM and under 100 nM.
On the same counts, the results for `Cc1noc(C)c1-c1ccc2nc(NC(C)CO)n3c2c1OCC3c1ccccc1` (single isomer, unassigned) [Example 31, 2-{[7-(3,5-Dimethylisoxazol-4-yl)-4-phenyl-4,5-dihydroimidazo[1,5,4-de][1,4]benzoxazin-2-yl]amino}propan-1-ol] are under 100 nM and under 100 nM.
As for `Cc1noc(C)c1-c1ccc2c3c1OCC(c1ccccc1)n3c(=O)n2C` (stereo not shown) [Example 2, 7-(3,5-Dimethylisoxazol-4-yl)-1-methyl-4-phenyl-4,5-dihydroimidazo[1,5,4-de][1,4]benzoxazin-2(1H)-one], the IC50 in assay [1] and in assay [2] was under 100 nM each time.
With `Cc1noc(C)c1-c1ccc2[nH]c(=O)n3c2c1OC(C)C3c1ccccc1` (stereo not shown) [Example 3, 7-(3,5-Dimethylisoxazol-4-yl)-5-methyl-4-phenyl-4,5-dihydroimidazo[1,5,4-de][1,4]benzoxazin-2(1H)-one], the half-maximal inhibitory concentration (IC50) in assay [1] and in assay [2] was under 100 nM each time.
Consider `Cc1noc(C)c1-c1ccc2[nH]c(=O)n3c2c1OCC3c1ccc(C#N)cc1` (stereo not shown) [Example 4, 4-[7-(3,5-Dimethylisoxazol-4-yl)-2-oxo-1,2,4,5-tetrahydroimidazo[1,5,4-de][1,4]benzoxazin-4-yl]benzonitrile], for which the IC50 in assay [1] and in assay [2] was under 100 nM each time.
For the compound `Cc1noc(C)c1-c1ccc2[nH]c(=O)n3c2c1OCC3c1cccnc1` (stereo not shown) [Example 5, 7-(3,5-Dimethylisoxazol-4-yl)-4-pyridin-3-yl-4,5-dihydroimidazo[1,5,4-de][1,4]benzoxazin-2(1H)-one], the IC50 in assay [1] and in assay [2] was under 100 nM in each case.
As for `COc1cccc(C2COc3c(-c4c(C)noc4C)ccc4[nH]c(=O)n2c34)c1` (stereo not shown) [Example 6, 7-(3,5-Dimethylisoxazol-4-yl)-4-(3-methoxyphenyl)-4,5-dihydroimidazo[1,5,4-de][1,4]benzoxazin-2(1H)-one], the IC50 in assay [1] and in assay [2] was under 100 nM throughout.
On to `COc1ccccc1C1COc2c(-c3c(C)noc3C)ccc3[nH]c(=O)n1c23` (stereo not shown) [Example 7, 7-(3,5-Dimethylisoxazol-4-yl)-4-(2-methoxyphenyl)-4,5-dihydroimidazo[1,5,4-de][1,4]benzoxazin-2(1H)-one], for which the IC50 in assay [1] and in assay [2] was under 100 nM throughout.
Take `Cc1noc(C)c1-c1ccc2[nH]c(=O)n3c2c1OCC3c1ccc(F)cc1F` (stereo not shown) [Example 8, 7-(3,5-Dimethylisoxazol-4-yl)-4-(2,4-difluorophenyl)-4,5-dihydroimidazo[1,5,4-de][1,4]benzoxazin-2(1H)-one]: the concentration for half-maximal inhibition (IC50) in assay [1] and in assay [2] was under 100 nM each time.
With `Cc1noc(C)c1-c1ccc2nc(C)n3c2c1OCC3c1ccccc1` (stereo not shown) [Example 9, 7-(3,5-Dimethylisoxazol-4-yl)-2-methyl-4-phenyl-4,5-dihydroimidazo[1,5,4-de][1,4]benzoxazine], the half-inhibitory concentration (IC50) in assay [1] and in assay [2] was under 100 nM throughout.
Turning to `Cc1noc(C)c1-c1ccc2c3c1OCC(c1ccccc1)n3c(=O)n2CCN1CCOCC1` (stereo not shown) [Example 10, 7-(3,5-Dimethylisoxazol-4-yl)-1-(2-morpholin-4-ylethyl)-4-phenyl-4,5-dihydroimidazo[1,5,4-de][1,4]benzoxazin-2(1H)-one], the IC50 in assay [1] is under 100 nM; in assay [2], 100 to 1000 nM.
As to `Cc1n[nH]c(C)c1-c1ccc2[nH]c(=O)n3c2c1OCC3c1ccccc1` (stereo not shown) [Example 11, 7-(3,5-Dimethyl-1H-pyrazol-4-yl)-4-phenyl-4,5-dihydroimidazo[1,5,4-de][1,4]benzoxazin-2(1H)-one], the IC50 in assay [1] fell in the range of 100 to 1000 nM; in assay [2], 1000 to 10000 nM.
For `Cc1n[nH]cc1-c1ccc2[nH]c(=O)n3c2c1OCC3c1ccccc1` (stereo not shown) [Example 12, 7-(3-Methyl-1H-pyrazol-4-yl)-4-phenyl-4,5-dihydroimidazo[1,5,4-de][1,4]benzoxazin-2(1H)-one], in that order: under 100 nM and 100 to 1000 nM.
As to `Cc1noc(C)c1-c1cc(-c2ccc(O)nc2)c2[nH]c(=O)n3c2c1OC[C@@H]3c1ccccn1` [Example 259, (4S)-7-(3,5-dimethylisoxazol-4-yl)-9-(6-hydroxypyridin-3-yl)-4-pyridin-2-yl-4,5-dihydroimidazo[1,5,4-de][1,4]benzoxazin-2(1H)-one], the half-inhibitory concentration (IC50) in assay [3] was under 100 nM; in assay [4] it was 100 to 1000 nM.
Regarding `Cc1noc(C)c1-c1cc(-c2ccnc(O)c2)c2[nH]c(=O)n3c2c1OC[C@@H]3c1ccccn1` [Example 260, (4S)-7-(3,5-dimethylisoxazol-4-yl)-9-(2-hydroxypyridin-4-yl)-4-pyridin-2-yl-4,5-dihydroimidazo[1,5,4-de][1,4]benzoxazin-2(1H)-one], the figures for the IC50 in assay [3] and in assay [4] were under 100 nM and 100 to 1000 nM, respectively.
On the same counts, the results for `Cc1noc(C)c1-c1cc(-c2cccnc2O)c2[nH]c(=O)n3c2c1OC[C@@H]3c1ccccn1` [Example 261, (4S)-7-(3,5-dimethylisoxazol-4-yl)-9-(2-hydroxypyridin-3-yl)-4-pyridin-2-yl-4,5-dihydroimidazo[1,5,4-de][1,4]benzoxazin-2(1H)-one] are under 100 nM and 100 to 1000 nM.
Regarding `Cc1noc(C)c1-c1cc(CNc2ccccc2)c2[nH]c(=O)n3c2c1OCC3c1ccccn1` (stereo not shown) [Example 262, 9-(anilinomethyl)-7-(3,5-dimethylisoxazol-4-yl)-4-pyridin-2-yl-4,5-dihydroimidazo[1,5,4-de][1,4]benzoxazin-2(1H)-one], the figures for the half-inhibitory concentration (IC50) in assay [3] and in assay [4] were under 100 nM and 1000 to 10000 nM, respectively.
For `COc1ccc(CNCc2cc(-c3c(C)noc3C)c3c4c2[nH]c(=O)n4C(c2ccccn2)CO3)cc1` (stereo not shown) [Example 263, 7-(3,5-dimethylisoxazol-4-yl)-9-{[(4-methoxybenzyl)amino]methyl}-4-pyridin-2-yl-4,5-dihydroimidazo[1,5,4-de][1,4]benzoxazin-2(1H)-one], in that order: under 100 nM and 100 to 1000 nM.
For `Cc1noc(C)c1-c1cc(F)c2[nH]c(=O)n3c2c1OCC3c1ccccn1` (stereo not shown) [Example 265A, 7-(3,5-dimethylisoxazol-4-yl)-9-fluoro-4-pyridin-2-yl-4,5-dihydroimidazo[1,5,4-de][1,4]benzoxazin-2(1H)-one], in that order: 1000 to 10000 nM and 1000 to 10000 nM.
With `Cc1noc(C)c1-c1cc(F)c2[nH]c(=O)n3c2c1OCC3c1ccccn1` (stereo not shown) [Example 265B, 7-(3,5-dimethylisoxazol-4-yl)-9-fluoro-4-pyridin-2-yl-4,5-dihydroimidazo[1,5,4-de][1,4]benzoxazin-2(1H)-one], the IC50 in assay [3] and in assay [4] was under 100 nM throughout.
Turning to `Cc1noc(C)c1-c1cc(C)c2[nH]c(=O)n3c2c1OCC3c1ccccn1` (stereo not shown) [Example 268, 7-(3,5-dimethylisoxazol-4-yl)-9-methyl-4-pyridin-2-yl-4,5-dihydroimidazo[1,5,4-de][1,4]benzoxazin-2(1H)-one], the half-maximal inhibitory concentration (IC50) in assay [3] fell in the range of 100 to 1000 nM; in assay [4] it was 1000 to 10000 nM.
For `Cc1noc(C)c1-c1cc(C#N)c2[nH]c(=O)n3c2c1OCC3c1ccccn1` (stereo not shown) [Example 269A, 7-(3,5-dimethylisoxazol-4-yl)-2-oxo-4-pyridin-2-yl-1,2,4,5-tetrahydroimidazo[1,5,4-de][1,4]benzoxazine-9-carbonitrile], the IC50 in assay [3] and in assay [4] was under 100 nM each time.
Consider `Cc1noc(C)c1-c1cc(C#N)c2[nH]c(=O)n3c2c1OCC3c1ccccn1` (stereo not shown) [Example 269B, 7-(3,5-dimethylisoxazol-4-yl)-2-oxo-4-pyridin-2-yl-1,2,4,5-tetrahydroimidazo[1,5,4-de][1,4]benzoxazine-9-carbonitrile], for which the IC50 in assay [3] and in assay [4] was 1000 to 10000 nM in each case.
